Test results reported in patent publication US20020187484A1, “Molecular break lights probes for detecting nucleotide cleavage” (priority 2000, published 2002).
Read-outs that look alike come from different tables or passages of the source. Marks after values point to notes of the source that are not given here.

B1: BamHI: restriction endonuclease, commercially available (protein, UniProt P23940 1-213, looked up)
Type II restriction enzyme …: MEVEKEFITDEAKELLSKDKLIQQAYNEVKTSICSPIWPATSKTFTINNTEKNCNGVVPIKELCYTLLEDTYNWYREKPLDILKLEKKKGGPIDVYKEFIENSELKRVGMEFETGNISSAHRSMNKLLLGLKHGEIDLAIILMPIKQLAYYLTDRVTNFEELEPYFELTEGQPFIFIGFNAEAYNSNVPLIPKGSDGMSKRSIKKWKDKVENK

Legend:
[1] = test system: break light A; experiment: Molecular break light assay: cleavage of break light A by enediynes and Fe^+2-dependent agents; format: biochemical; conditions: for agent concentration at maximum turnover: [A] = 32 nM; for Vmax: 37° C.; for effect of ascorbate on DNA-cleavage: addition of ascorbate; for agent concentration at maximum turnover (Vapp/[cleavage agent]): [molecular break light A] = 3.2 nM
Protocol: Samples were analyzed with a FluoroMax-2 spectrofluorometer equipped with DataMax for Windows (Instruments S. A., Inc.; Edison, N.J.) and the temperature controlled (30° C., unless otherwise noted) by a Haake Circulator DC10. All samples were filtered prior to analysis and analyzed via a timebase scan (λex=485 nm, λEm=517 nm) in a Suprasil quartz cuvette (10 mm path) fitted with a magnetic stirring bar in a total volume of 2 mL. […] Total cleavage of the labeled oligonucleotide, confirmed by polyacrylamide gel electrophoresis (PAGE), was defined as the maximum fluorescence emission possible under saturated cleaving conditions. Emission units were converted to the amount of labeled oligonucleotide used within a procedure, thereby equating labeled oligonucleotide degradation as a function of the emission of fluorescence.
Enediyne antibiotics calicheamicin and esperamicin at varying concentrations (0.31, 0.78, 1.6, 3.2, 15.9, and 31.7 nM) were incubated in 40 mM Tris-HCl (pH 7.5) with 3.2 nM of the calicheamicin-specific labeled molecular break light oligonucleotide (A). DNA cleavage was initiated with the addition of 1 μL 100 mM dithiothreitol (“DTT”) to produce a final concentration of 50 μM DTT, and the reaction was monitored over 10 minutes via spectrofluorometry.
Pseudo-first order kinetic parameters were utilized to determine the initial velocities at each given enediyne concentration. Specifically, graphical representation of the data was based upon equation 2 where [A]t is the concentration of cleaved oligonucleotide at a given time (t) and [A]0 is the initial concentration of oligonucleotide in the assay. Least squares analysis gave the slope (k), or rate, which was converted to V by the relationship in equation 3. The maximum velocity achieved (Vmax) was then selected from the range of concentrations examined.
ln[A]t=−kt+ln[A]0 [Equation 2]
Bleomycin, an Fe^+2-dependent nucleic acid cleavage agent, is a natural metabolite from Streptomyces verticillus. Blenoxane (a mixture containing approximately 70% bleomycin A2 and 30% bleomycin B2) was dissolved in water & optically standardized (ε291=1.7×10^4M^−1 cm^−1). Bleomycin mediated cleavage was adapted from procedures outlined by Giloni et al. J. Biol. Chem. 256: 8608-8615 (1981). Several different concentrations of bleomycin (200 nM, 100 nM, 50 nM, 25 nM, 12.5 nM, 5 nM, and 2.5 nM) were incubated in 50 mM sodium phosphate, 2.5 mM ascorbate, at pH 7.5 and 37° C. with 3.2 nM of the molecular break light A.
The reaction was initiated by the addition of 65 mM Fe(II) and monitored over 5 minutes. This protocol was repeated with the addition of 5 mM sodium ascorbate to the above conditions. Pseudo-first order kinetic parameters were utilized to determine the initial velocities at each given bleomycin concentration as previously described.
In a first assay, 3.2 nM break light A was incubated in 40 mM Tris HCl and 2.5 mM ascorbate at 37° C. and pH 7.5. Cleavage was initiated by addition of MPE/Fe(II) in a 1.2:1 molar ratio to various concentrations. Final Fe(II) concentrations were 8 μM, 4 μM, 2 μM, 1 μM, 500 nM, 250 nM, and 125 nM.
In a second assay, 32 nM molecular break light A was incubated in 40 mM Tris and 2.5 mM sodium ascorbate at pH 7.5 and 37° C. Cleavage was initiated by addition of MPE/Fe(II) in a 1.2:1 molar ratio to various concentrations. Final Fe(II) concentrations were 50 nM, 125 nM, 250 nM, 500 nM, 1 μM, and 2 μM.
In a third assay, 32 nM break light A (calicheamicin-specific molecular break light oligonucleotide) was incubated in 40 mM Tris and 2.5 mM sodium ascorbate at pH 7.5 and 37° C.

[2] = test system: dual fluorophoric-labeled dsDNA; conditions: 0.8 nM dual fluorophoric-labeled dsDNA, FCS spectrometer; cited from earlier work
[3] = test system: molecular break light B; experiment: BamHI steady state kinetics and sensitivity limits with break light B; format: biochemical
Protocol: Samples were analyzed with a FluoroMax-2 spectrofluorometer equipped with DataMax for Windows (Instruments S. A., Inc.; Edison, N.J.) and the temperature controlled (30° C., unless otherwise noted) by a Haake Circulator DC10. All samples were filtered prior to analysis and analyzed via a timebase scan (λex=485 nm, λEm=517 nm) in a Suprasil quartz cuvette (10 mm path) fitted with a magnetic stirring bar in a total volume of 2 mL. Reactions were equilibrated to the incubation temperature before initiation of DNA cleavage as was evident by a steady background emission over 10 min. Total cleavage of the labeled oligonucleotide, confirmed by polyacrylamide gel electrophoresis (PAGE), was defined as the maximum fluorescence emission possible under saturated cleaving conditions. Emission units were converted to the amount of labeled oligonucleotide used within a procedure, thereby equating labeled oligonucleotide degradation as a function of the emission of fluorescence.
Determination of BamHI (10 units/μL) specific cleavage was performed in 6 mM TrisHCl, 100 mM NaCl, 6 mM MgCl2, and 1 mM DTT, at 37° C. and pH 7.5 with 3.2 nM of molecular break light B (FIG. 2B) and varying amounts of BamHI-specific oligonucleotide lacking the fluorophore and quenching moieties. Total substrate concentrations (including break light) were as follows: 389 nM, 196 nM, 81 nM, 42 nM, 11 nM, 7.5 nM, and 3.4 nM.
The reaction was initiated with 10 U BamHI enzyme and monitored via spectrofluorometry over a time course of fifteen minutes. The initial rate of DNA cleavage was determined from data within the first 100 seconds of initiation which was then adjusted according to equation 1. These adjusted values were utilized for the reciprocal plot from which the Michaelis-Menten kinetic parameters were determined.
Vact=Vobs([Sact]/[S*]) [Equation 1]
The steady-state kinetic parameters for a commercially available BamHI were determined. The dependence of BamHI hydrolysis on substrate concentration was investigated using mixtures of a fixed amount of molecular break light B and varying amounts of an analogous non-labeled oligonucleotide (lacking both FAM and DABCYL) over a wide substrate concentration range. The apparent competitive inhibition observed due to phenomenon of “carrier dilution” was corrected to give the appropriate kinetic parameters. See, e.g., Roy, et al. (1994).
The observed velocity (Vapp) is related to the actual velocity (Vact) by equation [I] where [Sact] and [S*] are the total substrate concentration and B concentration, respectively. The reciprocal plot after correction for this “carrier dilution” phenomenon is illustrated in FIG. 4b.
A recent fluorescence correlation spectroscopy (FCS) assay for the restriction endonuclease EcoRI using 0.8 nM of dual fluorophoric-labeled dsDNA and a highly specialized FCS spectrometer, reported a detection limit of 1.6 pM EcoRI. Kettling, U., et al. (1998). Under the conditions containing even slightly less oligonucleotide (0.68 nM molecular break light), cleavage was easily detectable to 3.7 pM BamHI. […] This assay was performed undert the same conditions as the other assays in this Example.

[4] = test system: break light B; experiment: BamHI / DNaseI digestion of break light B (proof of principle); format: biochemical
Protocol: (§1) The cleavage of molecular break light probes A and B by BamHI was investigated. In a first assay, break light A and break light B were each incubated with 100 U BamHI. As a control, break light B was also incubated without enzyme. The incubations occurred at 37° C. in a solution containing 10 mM TrisHCl, 50 mM NaCl, 10 mM MgCl2, and 1 mM DTT at pH 7.9.
(§2) In a second assay, break light A and break light B were each incubated with 10 U DnaseI. As a control, break light A was also incubated without enzyme. The incubations occurred at 37° C. in a solution containing 40 mM Tris HCl, 10 mM MgSO4, and 1 mM CaCl2 at pH 8.0.

[5] = test system: break light A; experiment: BamHI / DNaseI digestion of break light A (proof of principle); format: biochemical; conditions: 3.2 nM break light A, 37° C.; 100 U BamHI or 10 U DNaseI
Protocol: as §1, §2

[6] = test system: oligonucleotide substrate; conditions: previously reported values for BamHI; cited from earlier work
[7] = [DNA]total = 3.2 nM, MPE as common agent

Molecule	agent concentration at maximum turnover [1]	Comparison to EDTA (fold enhancement over EDTA turnover) ([1]; [DNA]total = 32 nM)	Turnover (Vmax/[Agent]) ([1]; [DNA]total = 32 nM)	Vmax ([1]; [DNA]total = 32 nM)	effect of ascorbate on DNA-cleavage [1]	Turnover (Vmax/[Agent]) ([1]; [DNA]total = 3.2 nM)	Vmax ([1]; [DNA]total = 3.2 nM)	Comparison to EDTA (fold enhancement over EDTA turnover) [1, 7]	agent concentration at maximum turnover (Vapp/[cleavage agent]) [1]	further results
O=C([O-])CN(CCN(CC(=O)[O-])CC(=O)[O-])CC(=O)[O-].[Fe+2].[H+].[H+] [EDTA, Fe^+2-EDTA]	~1.3 µM	1.0 fold	1.5e-06 s⁻¹	0.002 ± 0.001^e nM sec^−1	critical for efficient DNA-cleavage					
EcoRI: restriction endonuclease										detection limit [2]: 1.6 pM
bleomycin					did not affect	0.001 s⁻¹	0.009 ± 0.001^d nM sec^−1	6.8 × 10^4 fold	2.5 nM	detection of agent by the assay (sensitivity range) ([1]; 3.2 nM break light A, conditions described): nM range; additional increase of cleavage efficiency over MPE ([1]; from Table 1): 10 fold
esperamicin A1						0.009 s⁻¹	0.007 ± 0.001^d nM sec^−1	6.1 × 10^5 fold		maximum fluorescence upon cleavage, compared with DNaseI ([1]; 3.2 nM break light A, excess DTT): identical to that observed with DNaseI; enhancement of cleavage efficiency over bleomycin ([1]; from Table 1): ~10 fold
methidiumpropyl-Fe^+2-EDTA [Methidiumpropyl-EDTA]	~0.05 µM	1.6 × 10^3 fold	0.002 s⁻¹	0.118 ± 0.004^e nM sec^−1	critical for efficient DNA-cleavage	2.4e-05 s⁻¹	0.003 ± 0.001^d nM sec^−1	1.6 × 10^3 fold	125 nM	enhancement of cleavage efficiency in comparison to Fe^+2-EDTA ([1]; from Table 1): ~10^3 fold
B1										detection limit [3]: 0.12 pM; detection limit (cleavage easily detectable to) ([3]; 0.68 nM molecular break light): 3.7 pM; Vmax ([3]; 10 U BamHI, 3.2 nM break light B plus non-labeled oligonucleotide, 37° C., pH 7.5): 0.024 ± 0.001 nM/s; Km ([3]; 10 U BamHI, break light B plus non-labeled oligonucleotide, 37° C., pH 7.5): 8.9 ± 0.5 nM; Comparison to EDTA (fold enhancement over EDTA turnover) ([3]; BamHI, break light B): 4.8 × 10^5 fold; Turnover (Vmax/[Agent]; also known as kcat) ([3]; BamHI, break light B): 0.007^c sec^−1; detection limit ([3]; molecular break light concentration 34 nM): 0.12 pM; change in fluorescence intensity over time ([4]; 3.2 nM break light B, 37° C., 100 U BamHI or 10 U DNaseI): increase of fluorescence; fluorescence maximum intensity upon complete cleavage, relative to DNaseI ([4]; same concentration of molecular break light): 75%; change in fluorescence intensity over time [5]: no change; Km [6]: 0.4 nM; V max, previously reported [6]: 0.009 nM/s
